How the values were obtained:
[1] = target: T1, Carbonic anhydrase 4 (Bos taurus, UniProt Q95323)
T1 sequence (Q95323 whole entry): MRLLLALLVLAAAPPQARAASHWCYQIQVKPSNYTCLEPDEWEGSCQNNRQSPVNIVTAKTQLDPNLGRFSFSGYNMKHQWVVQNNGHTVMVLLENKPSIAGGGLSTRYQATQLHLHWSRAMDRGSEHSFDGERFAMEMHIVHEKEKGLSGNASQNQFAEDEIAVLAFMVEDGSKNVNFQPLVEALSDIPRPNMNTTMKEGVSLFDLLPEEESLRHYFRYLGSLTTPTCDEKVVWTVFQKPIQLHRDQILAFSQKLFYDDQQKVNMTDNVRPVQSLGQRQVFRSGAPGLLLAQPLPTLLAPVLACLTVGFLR
Description: Inhibition constant against bovine Carbonic anhydrase IV, isolated from lung microsomes

[2] = target: Carbonic anhydrase 9 (Homo sapiens, UniProt Q16790)
Description: Inhibition constant determined against catalytic domain of human cloned carbonic anhydrase IX

[3] = target: Carbonic anhydrase 2 (Homo sapiens, UniProt P00918)
Description: Inhibition constant (Ki) against human cloned carbonic anhydrase II (CAH)

[4] = target: Carbonic anhydrase 1 (Homo sapiens, UniProt P00915)
Carbonic anhydrase 1, sequence (P00915 whole entry): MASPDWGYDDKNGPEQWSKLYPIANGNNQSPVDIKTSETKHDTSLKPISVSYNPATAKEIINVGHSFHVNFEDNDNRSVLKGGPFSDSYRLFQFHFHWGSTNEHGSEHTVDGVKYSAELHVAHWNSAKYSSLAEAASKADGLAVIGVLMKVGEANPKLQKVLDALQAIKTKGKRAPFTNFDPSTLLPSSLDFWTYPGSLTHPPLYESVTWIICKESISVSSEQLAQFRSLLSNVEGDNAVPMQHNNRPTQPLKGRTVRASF
Description: Inhibition constant determined against human cloned carbonic anhydrase I

CC(=O)Nc1ccc(S(N)(=O)=O)cc1I
Ki [1]: 115 nM
Ki [2]: 209 nM
Ki [3]: 47 nM
Ki [4]: 3300 nM

Nc1c(Cl)cc(S(N)(=O)=O)cc1I
Ki [1]: 200 nM
Ki [2]: 63 nM
Ki [3]: 61 nM
Ki [4]: 7800 nM

CC(=O)Nc1ccc(S(=O)(=O)Nc2nnc(S(N)(=O)=O)s2)cc1
Ki [1]: 8.2 nM
Ki [2]: 75 nM
Ki [3]: 3.1 nM
Ki [4]: 10.2 nM

Nc1c(F)cc(S(N)(=O)=O)cc1I
Ki [1]: 125 nM
Ki [2]: 34 nM
Ki [3]: 29 nM
Ki [4]: 3700 nM

Nc1ccc(S(=O)(=O)Nc2nnc(S(N)(=O)=O)s2)cc1I
Ki [1]: 2.5 nM
Ki [3]: 0.6 nM
Ki [4]: 2.1 nM

Nc1c(F)cc(S(=O)(=O)Nc2nnc(S(N)(=O)=O)s2)cc1Cl
Ki [1]: 2 nM
Ki [2]: 40 nM
Ki [4]: 1.4 nM

Nc1c(F)cc(S(=O)(=O)Nc2nnc(S(N)(=O)=O)s2)cc1Br
Ki [1]: 1.9 nM
Ki [2]: 27 nM
Ki [3]: 0.2 nM
Ki [4]: 1 nM

Nc1ccc(S(=O)(=O)Nc2nnc(S(N)(=O)=O)s2)cc1F
Ki [1]: 2.5 nM
Ki [2]: 46 nM
Ki [3]: 0.8 nM
Ki [4]: 3.1 nM

Nc1ccc(S(=O)(=O)Nc2nnc(S(N)(=O)=O)s2)cc1Br
Ki [1]: 2.4 nM
Ki [2]: 47 nM
Ki [3]: 0.7 nM
Ki [4]: 1.9 nM

Nc1c(Br)cc(S(=O)(=O)Nc2nnc(S(N)(=O)=O)s2)cc1I
Ki [1]: 2.3 nM
Ki [3]: 0.6 nM
Ki [4]: 1.9 nM

Nc1c(Br)cc(S(N)(=O)=O)cc1I
Ki [1]: 250 nM
Ki [3]: 107 nM
Ki [4]: 12500 nM

CC(=O)Nc1ccc(S(N)(=O)=O)cc1Br
Ki [1]: 58 nM
Ki [2]: 203 nM
Ki [3]: 25 nM
Ki [4]: 3400 nM

CC(=O)Nc1ccc(S(N)(=O)=O)cc1Cl
Ki [1]: 245 nM
Ki [2]: 196 nM
Ki [3]: 74 nM
Ki [4]: 6250 nM

CC(=O)Nc1ccc(S(N)(=O)=O)cc1F
Ki [1]: 105 nM
Ki [2]: 213 nM
Ki [3]: 29 nM
Ki [4]: 4200 nM

CC(=O)Nc1ccc(S(=O)(=O)Nc2nnc(S(N)(=O)=O)s2)cc1Br
Ki [1]: 4.6 nM
Ki [2]: 78 nM
Ki [3]: 1.5 nM
Ki [4]: 5 nM

Nc1c(F)cc(S(=O)(=O)Nc2nnc(S(N)(=O)=O)s2)cc1I
Ki [1]: 2.1 nM
Ki [2]: 21 nM
Ki [3]: 0.3 nM
Ki [4]: 1.7 nM

CC(=O)Nc1ccc(S(=O)(=O)Nc2nnc(S(N)(=O)=O)s2)cc1I
Ki [1]: 4.5 nM
Ki [3]: 1.7 nM
Ki [4]: 5.2 nM

Nc1c(Br)cc(S(N)(=O)=O)cc1Br
Ki [1]: 175 nM
Ki [2]: 68 nM

Nc1c(Cl)cc(S(N)(=O)=O)cc1Cl
Ki [1]: 165 nM
Ki [2]: 27 nM
Ki [3]: 50 nM
Ki [4]: 7000 nM

Nc1c(F)cc(S(N)(=O)=O)cc1Cl
Ki [1]: 95 nM
Ki [2]: 12 nM
Ki [3]: 32 nM
Ki [4]: 3800 nM

Nc1c(F)cc(S(N)(=O)=O)cc1Br
Ki [1]: 113 nM
Ki [2]: 69 nM
Ki [3]: 33 nM
Ki [4]: 3900 nM

Nc1c(I)cc(S(=O)(=O)Nc2nnc(S(N)(=O)=O)s2)cc1I
Ki [1]: 2.3 nM
Ki [2]: 41 nM
Ki [3]: 0.9 nM

CC(=O)Nc1ccc(S(=O)(=O)Nc2nnc(S(N)(=O)=O)s2)cc1Cl
Ki [1]: 4.2 nM
Ki [2]: 71 nM
Ki [3]: 1.3 nM
Ki [4]: 5.4 nM

CC(=O)Nc1ccc(S(=O)(=O)Nc2nnc(S(N)(=O)=O)s2)cc1F
Ki [1]: 4 nM
Ki [2]: 79 nM
Ki [3]: 1.2 nM
Ki [4]: 5.7 nM

Nc1c(Cl)cc(S(=O)(=O)Nc2nnc(S(N)(=O)=O)s2)cc1Cl
Ki [1]: 1.9 nM
Ki [2]: 24 nM
Ki [3]: 0.5 nM
Ki [4]: 1.1 nM

Nc1c(Cl)cc(S(=O)(=O)Nc2nnc(S(N)(=O)=O)s2)cc1I
Ki [1]: 2.7 nM
Ki [3]: 0.8 nM
Ki [4]: 1.6 nM

Nc1c(Cl)cc(S(=O)(=O)Nc2nnc(S(N)(=O)=O)s2)cc1Br
Ki [1]: 2 nM
Ki [3]: 0.6 nM
Ki [4]: 1.3 nM

Nc1c(I)cc(S(N)(=O)=O)cc1I
Ki [1]: 280 nM
Ki [4]: 14000 nM

Nc1c(Cl)cc(S(N)(=O)=O)cc1Br
Ki [1]: 210 nM
Ki [2]: 33 nM
Ki [3]: 54 nM
Ki [4]: 7600 nM

Nc1ccc(S(=O)(=O)Nc2nnc(S(N)(=O)=O)s2)cc1Cl
Ki [1]: 2.4 nM
Ki [2]: 46 nM
Ki [3]: 0.6 nM
Ki [4]: 2.5 nM

Nc1c(Br)cc(S(=O)(=O)Nc2nnc(S(N)(=O)=O)s2)cc1Br
Ki [1]: 1.7 nM
Ki [2]: 39 nM
Ki [3]: 0.5 nM
Ki [4]: 1 nM
